According to ChEMBL document CHEMBL5136988, “Chlororesistoflavins A and B, Chlorinated Benzopyrene Antibiotics Produced by the Marine-Derived Actinomycete Streptomyces sp. Strain EG32” (2022):
Values after ≈ are worked out from the molar mass of the structure shown.

How the values were obtained:
Escherichia coli = assay: Antibacterial activity against Escherichia coli LptD4213 assessed as growth inhibition incubated for 20 hrs by CLSI based broth microdilution method; assay type: functional
Staphylococcus aureus = assay: Antibacterial activity against methicillin-resistant Staphylococcus aureus TCH1516 assessed as growth inhibition incubated for 20 hrs by CLSI based broth microdilution method; assay type: functional

Compound	MIC (Escherichia coli) [µg/mL]	MIC (Staphylococcus aureus) [µg/mL]
Cc1cc(O)c2c3c1C(=O)C=C1C(C)(C)C(=O)c4c(O)c(Cl)c(O)c(c4[C@@]13O)C2=O	128 (≈ 300 µM)	2 (≈ 4.69 µM)
Cc1cc(O)c2c3c4c(cc(O)c13)C(C)(C)C(=O)c1c(O)cc(O)c(c1-4)C2=O [HELIOMYCIN]	32 (≈ 85 µM)	0.125 (≈ 0.332 µM)
Cc1cc(O)c2c3c1C(=O)C(Cl)=C1C(C)(C)C(=O)c4c(O)cc(O)c(c4[C@@]13O)C2=O	32 (≈ 75 µM)	0.25 (≈ 0.586 µM)
Cc1cc(O)c2c3c1C(=O)C=C1C(C)(C)C(=O)c4c(O)cc(O)c(c4[C@@]13O)C2=O	64 (≈ 163 µM)	0.25 (≈ 0.637 µM)
